Measured values taken from ChEMBL document CHEMBL5344413, “Discovery of 4-(1,2,4-Oxadiazol-5-yl)azepan-2-one Derivatives as a New Class of Cannabinoid Type 2 Receptor Agonists for the Treatment of Inflammatory Pain” (J Med Chem, 2023).
Blank lines part the entries; values can stand above or below the compound they belong to.

Tests used:
Cannabinoid receptor 2 [1] = target: T1, Cannabinoid receptor 2 (Homo sapiens, UniProt P34972); experiment: Agonist activity at human CB2 receptor expressed in CHO cells assessed as inhibition of forskolin-stimulated intracellular cAMP accumulation measured after 30 mins by Glosensor assay; format: functional, cell-based
Cannabinoid receptor 2 [2] = target: T1, Cannabinoid receptor 2; experiment: Agonist activity at human CB2 receptor expressed in CHO cells assessed as inhibition of forskolin-stimulated intracellular cAMP accumulation measured after 30 mins by Glosensor assay relative to control; format: functional, cell-based; conditions: filed as agonist
Cannabinoid receptor 1 [3] = target: T2, Cannabinoid receptor 1 (Homo sapiens, UniProt P21554); experiment: Agonist activity at human CB1 receptor expressed in CHO cells assessed as inhibition of forskolin-stimulated intracellular cAMP accumulation measured after 30 mins by Glosensor assay; format: cell-based
Cannabinoid receptor 2 [4] = target: T1, Cannabinoid receptor 2; experiment: Inverse agonist activity at human CB2 receptor expressed in CHO cells assessed as forskolin-stimulated intracellular cAMP accumulation measured after 30 mins by Glosensor assay; format: functional, cell-based
Cannabinoid receptor 1 [5] = target: T2, Cannabinoid receptor 1; experiment: Inverse agonist activity at human CB1 receptor expressed in CHO cells assessed as forskolin-stimulated intracellular cAMP accumulation measured after 30 mins by Glosensor assay; format: cell-based
Homo sapiens = species: Homo sapiens; experiment: Selectivity ratio of EC50 for agonist activity at human CB1 receptor expressed in CHO cells to EC50 for agonist activity at human CB2 receptor expressed in CHO cells; format: cell-based

T2 sequence (P21554 whole entry): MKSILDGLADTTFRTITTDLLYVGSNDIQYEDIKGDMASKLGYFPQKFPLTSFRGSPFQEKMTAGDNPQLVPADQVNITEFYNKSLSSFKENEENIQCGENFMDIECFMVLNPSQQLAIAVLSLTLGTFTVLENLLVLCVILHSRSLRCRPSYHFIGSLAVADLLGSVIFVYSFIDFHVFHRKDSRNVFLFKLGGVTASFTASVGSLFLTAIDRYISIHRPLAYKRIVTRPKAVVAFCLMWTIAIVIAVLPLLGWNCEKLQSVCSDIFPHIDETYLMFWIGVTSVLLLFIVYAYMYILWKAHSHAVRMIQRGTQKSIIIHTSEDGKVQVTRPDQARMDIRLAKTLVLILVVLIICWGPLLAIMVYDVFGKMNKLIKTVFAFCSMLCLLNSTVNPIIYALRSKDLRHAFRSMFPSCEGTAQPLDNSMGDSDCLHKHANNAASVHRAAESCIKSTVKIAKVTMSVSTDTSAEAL
T1 sequence (P34972 whole entry): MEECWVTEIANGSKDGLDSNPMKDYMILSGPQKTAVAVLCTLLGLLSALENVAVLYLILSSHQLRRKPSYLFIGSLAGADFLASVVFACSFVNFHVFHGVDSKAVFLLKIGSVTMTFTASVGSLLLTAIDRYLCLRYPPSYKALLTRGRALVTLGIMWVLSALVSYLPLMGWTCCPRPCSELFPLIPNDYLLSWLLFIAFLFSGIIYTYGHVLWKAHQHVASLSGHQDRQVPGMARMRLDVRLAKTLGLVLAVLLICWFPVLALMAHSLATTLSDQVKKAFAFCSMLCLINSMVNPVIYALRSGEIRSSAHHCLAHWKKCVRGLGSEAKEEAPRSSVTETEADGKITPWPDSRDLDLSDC

SMILES: O=C1CC(c2nc(-c3ccc(F)cc3Cl)no2)CCCN1c1ccc(F)cc1 (centres undefined)
- EC50 (Cannabinoid receptor 2 [1]): > 10 µM
- EC50 (Cannabinoid receptor 1 [3]): > 10 µM

SMILES: O=C1CC(c2nc(-c3ccc(F)c4cn[nH]c34)no2)CCCN1c1ccc(C(F)(F)F)cc1 (centres undefined)
- EC50 (Cannabinoid receptor 2 [1]): > 10 µM
- EC50 (Cannabinoid receptor 1 [3]): > 10 µM

SMILES: O=C1CC(c2nc(Cc3ccccc3F)no2)CCCN1c1ccc(F)cc1 (centres undefined)
- EC50 (Cannabinoid receptor 2 [1]): > 10 µM
- EC50 (Cannabinoid receptor 1 [3]): > 10 µM

SMILES: Fc1ccc(Nc2cccc(-c3nc(-c4ccccc4)no3)c2)cc1
- EC50 (Cannabinoid receptor 2 [1]): > 10 µM
- EC50 (Cannabinoid receptor 1 [3]): > 10 µM

SMILES: O=C1CC(c2nc(-c3ccccc3)no2)CCN1c1ccc(F)cc1 (centres undefined)
- EC50 (Cannabinoid receptor 2 [1]): > 10 µM
- EC50 (Cannabinoid receptor 1 [3]): > 10 µM

SMILES: O=C1CC(c2nc(-c3ccccc3F)no2)CCCN1c1ccc(F)cc1 (centres undefined)
- EC50 (Cannabinoid receptor 2 [1]): > 10 µM
- EC50 (Cannabinoid receptor 1 [3]): > 10 µM

SMILES: O=C1CC(c2nc(-c3ccc(Cl)cc3)no2)CCCN1c1ccc(F)cc1 (centres undefined)
- EC50 (Cannabinoid receptor 2 [1]): > 10 µM
- EC50 (Cannabinoid receptor 1 [3]): > 10 µM

SMILES: O=C(c1ccc(F)cc1)N1CCC(c2nc(-c3ccccc3)no2)CC1
- EC50 (Cannabinoid receptor 2 [1]): > 10 µM
- EC50 (Cannabinoid receptor 1 [3]): > 10 µM

SMILES: O=C(NCCc1nc(-c2ccccc2)no1)c1ccc(F)cc1
- EC50 (Cannabinoid receptor 1 [3]): > 10 µM
- EC50 (Cannabinoid receptor 2 [4]): > 10 µM

SMILES: O=C(c1ccc(F)cc1)N1CC(c2nc(-c3ccccc3)no2)C1
- EC50 (Cannabinoid receptor 2 [1]): > 10 µM
- EC50 (Cannabinoid receptor 1 [3]): > 10 µM

SMILES: CC(=O)c1ccc(N2CCCC(c3nc(-c4ccc(F)c5cn[nH]c45)no3)CC2=O)cc1 (centres undefined)
- EC50 (Cannabinoid receptor 2 [1]): > 10 µM
- EC50 (Cannabinoid receptor 1 [3]): > 10 µM

SMILES: O=C1CC(c2nc(-c3ccncc3)no2)CCCN1c1ccc(F)cc1 (centres undefined)
- EC50 (Cannabinoid receptor 2 [1]): > 10 µM
- EC50 (Cannabinoid receptor 1 [3]): > 10 µM

SMILES: O=C1CC(c2nc(Cc3cccc(F)c3)no2)CCCN1c1ccc(F)cc1 (centres undefined)
- EC50 (Cannabinoid receptor 2 [1]): > 10 µM
- EC50 (Cannabinoid receptor 1 [3]): > 10 µM

SMILES: CN1CCCC(c2nc(-c3ccc(F)c4cn[nH]c34)no2)CC1=O (centres undefined)
- EC50 (Cannabinoid receptor 2 [1]): > 10 µM
- EC50 (Cannabinoid receptor 1 [3]): > 10 µM

SMILES: Fc1ccc(Nc2ccc(-c3nc(-c4ccccc4)no3)cc2)cc1
- EC50 (Cannabinoid receptor 2 [1]): > 10 µM
- EC50 (Cannabinoid receptor 1 [3]): > 10 µM

SMILES: O=C(c1ccc(F)cc1)N1CC2(CC(c3nc(-c4ccccc4)no3)C2)C1
- EC50 (Cannabinoid receptor 2 [1]): > 10 µM
- EC50 (Cannabinoid receptor 1 [3]): > 10 µM

SMILES: O=C1CC(c2nc(-c3ccc(F)cc3C(F)(F)F)no2)CCCN1c1ccc(F)cc1 (centres undefined)
- EC50 (Cannabinoid receptor 2 [1]): > 10 µM
- EC50 (Cannabinoid receptor 1 [3]): > 10 µM

SMILES: O=C1CC(c2nc(Cc3ccc(F)cc3)no2)CCCN1c1ccc(F)cc1 (centres undefined)
- EC50 (Cannabinoid receptor 2 [1]): > 10 µM
- EC50 (Cannabinoid receptor 1 [3]): > 10 µM

SMILES: O=C1CC(c2nc(Cc3ccccc3)no2)CCCN1c1ccc(F)cc1 (centres undefined)
- EC50 (Cannabinoid receptor 2 [1]): > 10 µM
- EC50 (Cannabinoid receptor 1 [3]): > 10 µM

SMILES: O=C1CC(c2nc(-c3ccc(F)cn3)no2)CCCN1c1ccc(F)cc1 (centres undefined)
- EC50 (Cannabinoid receptor 2 [1]): > 10 µM
- EC50 (Cannabinoid receptor 1 [3]): > 10 µM

SMILES: O=C1C=C(c2nc(-c3ccccc3)no2)CCCN1c1ccc(F)cc1
- EC50 (Cannabinoid receptor 2 [1]): > 10 µM
- EC50 (Cannabinoid receptor 1 [3]): > 10 µM

SMILES: O=C1CC(c2nc(-c3ccc(F)cc3F)no2)CCCN1c1ccc(F)cc1 (centres undefined)
- EC50 (Cannabinoid receptor 2 [1]): > 10 µM
- EC50 (Cannabinoid receptor 1 [3]): > 10 µM

Continued by falling EC50 (Cannabinoid receptor 2 [1]), values first:

- EC50 (Cannabinoid receptor 2 [1]): 3.3 µM
SMILES: Cc1cc(F)ccc1-c1noc(C2CCCN(c3ccc(F)cc3)C(=O)C2)n1 (centres undefined)
- EC50 (Cannabinoid receptor 1 [3]): > 10 µM

- EC50 (Cannabinoid receptor 2 [1]): 2.81 µM
- Emax (Cannabinoid receptor 2 [2]): 78%
SMILES: O=C1CC(c2nc(-c3ccccc3)no2)CCCN1c1ccc(F)cc1 (centres undefined)
- EC50 (Cannabinoid receptor 1 [3]): > 30 µM
- Ratio EC50 (Homo sapiens): > 10

- EC50 (Cannabinoid receptor 2 [1]): 2.12 µM
- Emax (Cannabinoid receptor 2 [2]): 97%
SMILES: O=C1CC(c2nc(-c3cccc(F)c3)no2)CCCN1c1ccc(F)cc1 (centres undefined)
- EC50 (Cannabinoid receptor 1 [3]): > 10 µM

- EC50 (Cannabinoid receptor 2 [1]): 2.05 µM
- Emax (Cannabinoid receptor 2 [2]): 74%
SMILES: O=C1CC(c2nc(-c3ccc(F)c4cn[nH]c34)no2)CCCN1c1ccc(OC(F)(F)F)cc1 (centres undefined)
- EC50 (Cannabinoid receptor 1 [3]): > 10 µM

- EC50 (Cannabinoid receptor 2 [1]): 1.39 µM
- Emax (Cannabinoid receptor 2 [2]): 91%
SMILES: O=C1CC(c2nc(-c3ccc(F)cc3)no2)CCCN1c1ccc(F)cc1 (centres undefined)
- EC50 (Cannabinoid receptor 1 [3]): > 10 µM

- EC50 (Cannabinoid receptor 2 [1]): 1.35 µM
- Emax (Cannabinoid receptor 2 [2]): 82%
SMILES: Cc1ccc(N2CCCC(c3nc(-c4ccc(F)c5cn[nH]c45)no3)CC2=O)cc1 (centres undefined)
- EC50 (Cannabinoid receptor 1 [3]): > 10 µM

- EC50 (Cannabinoid receptor 2 [1]): 1.31 µM
- Emax (Cannabinoid receptor 2 [2]): 79%
SMILES: O=C1CC(c2nc(-c3ccc(F)c4cn[nH]c34)no2)CCCN1c1cccc(F)c1 (centres undefined)
- EC50 (Cannabinoid receptor 1 [3]): > 10 µM

- EC50 (Cannabinoid receptor 2 [1]): 1.21 µM
- Emax (Cannabinoid receptor 2 [2]): 101%
SMILES: COc1ccc(N2CCCC(c3nc(-c4ccc(F)c5cn[nH]c45)no3)CC2=O)cc1 (centres undefined)
- EC50 (Cannabinoid receptor 1 [3]): > 10 µM

- EC50 (Cannabinoid receptor 2 [1]): 1.21 µM
- Emax (Cannabinoid receptor 2 [2]): 97%
SMILES: O=C1CC(c2nc(-c3ccc(F)c4ccccc34)no2)CCCN1c1ccc(F)cc1 (centres undefined)
- EC50 (Cannabinoid receptor 1 [3]): > 10 µM

- EC50 (Cannabinoid receptor 2 [1]): 0.805 µM
- Emax (Cannabinoid receptor 2 [2]): 112%
SMILES: O=C1CC(c2nc(-c3ccc(F)c4cn[nH]c34)no2)CCCN1c1ccc(Cl)cc1 (centres undefined)
- EC50 (Cannabinoid receptor 1 [3]): > 10 µM

- EC50 (Cannabinoid receptor 2 [1]): 0.449 µM
- Emax (Cannabinoid receptor 2 [2]): 123%
SMILES: O=C1CC(c2nc(-c3ccc(F)c4cc[nH]c34)no2)CCCN1c1ccc(F)cc1 (centres undefined)
- EC50 (Cannabinoid receptor 1 [3]): > 10 µM

- EC50 (Cannabinoid receptor 2 [1]): 0.445 µM
- Emax (Cannabinoid receptor 2 [2]): 91%
SMILES: COc1cc(F)ccc1-c1noc(C2CCCN(c3ccc(F)cc3)C(=O)C2)n1 (centres undefined)
- EC50 (Cannabinoid receptor 1 [3]): > 10 µM

- EC50 (Cannabinoid receptor 2 [1]): 0.338 µM
- Emax (Cannabinoid receptor 2 [2]): 102%
SMILES: O=C1CC(c2nc(-c3ccc(F)c4cn[nH]c34)no2)CCCN1c1cc(F)c(F)c(F)c1 (centres undefined)
- EC50 (Cannabinoid receptor 1 [5]): > 10 µM

- EC50 (Cannabinoid receptor 2 [1]): 0.332 µM
- Emax (Cannabinoid receptor 2 [2]): 92%
SMILES: O=C1CC(c2nc(-c3ccc(F)c4cn[nH]c34)no2)CCCN1c1cccc(F)c1F (centres undefined)
- EC50 (Cannabinoid receptor 1 [3]): > 10 µM

- EC50 (Cannabinoid receptor 2 [1]): 0.318 µM
- Emax (Cannabinoid receptor 2 [2]): 81%
SMILES: O=C1CC(c2nc(-c3ccc(F)c4cn[nH]c34)no2)CCCN1c1ccc(F)c(F)c1 (centres undefined)
- EC50 (Cannabinoid receptor 1 [3]): > 10 µM

- EC50 (Cannabinoid receptor 2 [1]): 0.3 µM
- Emax (Cannabinoid receptor 2 [2]): 88%
SMILES: O=C1CC(c2nc(-c3ccc(F)c4cn[nH]c34)no2)CCCN1c1ccccc1 (centres undefined)
- EC50 (Cannabinoid receptor 1 [3]): > 10 µM

- EC50 (Cannabinoid receptor 2 [1]): 0.11 µM
- Emax (Cannabinoid receptor 2 [2]): 100%
SMILES: O=C1CC(c2nc(-c3ccc(F)c4cn[nH]c34)no2)CCCN1c1ccc(F)cc1F (centres undefined)
- EC50 (Cannabinoid receptor 1 [3]): > 10 µM

- EC50 (Cannabinoid receptor 2 [1]): 0.0587 µM
- Emax (Cannabinoid receptor 2 [2]): 80%
SMILES: O=C1C[C@@H](c2nc(-c3ccc(F)c4cn[nH]c34)no2)CCCN1c1ccc(F)cc1
- EC50 (Cannabinoid receptor 1 [3]): > 30 µM

- EC50 (Cannabinoid receptor 2 [1]): 0.0454 µM
- Emax (Cannabinoid receptor 2 [2]): 93%
SMILES: O=C1CC(c2nc(-c3ccc(F)c4cn[nH]c34)no2)CCCN1c1ccccc1F (centres undefined)
- EC50 (Cannabinoid receptor 1 [3]): > 10 µM

- EC50 (Cannabinoid receptor 2 [1]): 0.0348 µM
- Emax (Cannabinoid receptor 2 [2]): 102%
SMILES: O=C1C[C@H](c2nc(-c3ccc(F)c4cn[nH]c34)no2)CCCN1c1ccc(F)cc1
- EC50 (Cannabinoid receptor 1 [3]): > 30 µM
